Entries after “also recorded” stand apart in the source; their conditions may differ.
Assays:
[1] = system: severe (Col3a1 G938D/+) and mild (Col3a1^G209S/+) mouse models of vEDS; details: either vEDS mouse model; interventions that inhibit PKC/ERK activation; cited from earlier work
BL6 Col3a1^G938D/+ mice = assay: Kaplan-Meier survival / vascular rupture of drug-treated BL6 vEDS mice; format: in vivo; details: for elevated risk of rupture caused by the p38 inhibitor, under concomitant treatment (Kaplan-Meier survival): BL6 Col3a1^G938D/+ mice receiving SB203580 IP plus test drug (cobimetinib via drinking water, ruboxistaurin via chow) from weaning for 30 days, vs SB203580 alone
Excerpt: Mice were maintained either on a C57BL/6J background (#000664, The Jackson Laboratory) or on a 129S6/SvEvTac background (#129SVE, Taconic Biosciences). Mice were considered to be 129S6/SvEvTac after backcrossing for a minimum of 4 generations. F1 and mixed mice were generated by interbreeding pure C57BL/6J and 129S6/SvEvTac mice. To identify the dominant genetic locus, mixed background wild-type females were bred to Col3a1^G938D/+ male mice on a pure BL6 background. Mice haploinsufficient or knockout for Map2k6 were originally obtained from the Jackson Laboratory (#008382) and backcrossed in the lab for a minimum of 10 generations. Restriction enzymes were used to detect the presence or absence of the Col3a1 mutation. The G209S mutation leads to the loss of an AvaII cut site and the G938D mutation leads to the gain of a BamHI cut site (AvaII R0153L; BamHI-HF R3136S, New England Biolabs). All mice found dead were assessed for cause of death by necropsy, noting in particular hemothorax and hemoperitoneum.
(§1) For drug trials in the Col3a1/^G938D/+ mice, mice were initiated on medication at weaning and continued until the end of the trial. Cobimetinib (GDC-0973/R0551404, Active Biochem) was dissolved in drinking water and filtered to reach a final concentration of 0.02 g/L giving an estimated dose of 2 mg/kg/day. Ruboxistaurin (LY333531 HCl, Selleck Chemicals) was mixed with powdered food (LabDiet) to give a concentration of 0.1 mg/g giving an estimated dose of 8 mg/kg/day. SB203580 (Selleck Chemicals) was administered at a dose of 5 mg/kg/d every 3 days by intraperitoneal injection. Animals receiving placebo (5% Tween in PBS) were also injected every 3 days by intraperitoneal injection.
Kaplan-Meier survival curves were compared using a log-rank (Mantel-Cox) test. Mice were censored only if unrelated to the outcome, such as for planned biochemical or histologic analysis or if the authors were directed to euthanize them by animal care staff, for malocclusion, fight wounds, or genital prolapse.

pPKCβ = assay: Western blot of pPKCβ in proximal descending aortas of treated vEDS mice; format: in vivo; details: aortas of Col3a1^G938D/+ mice, SB203580 treated vs placebo treated; p<0.01
Protocol: (§2) Protein was extracted using an automatic bead homogenizer in conjunction with a Protein Extraction Kit (Full Moon Biosystems). All protein lysis buffers contained both PhosSTOP and Complete™, Mini, EDTA-free Protease Inhibitor Cocktail (Roche). Western blotting was performed using LI-COR buffer and species appropriate secondary antibodies conjugated to IR-dye700 or IRdye-800 (LI-COR Biosciences), according to the manufacturer's guidelines and analyzed using LI-COR Odyssey. The following primary antibodies were used: anti-β-Actin (8H10D10) (Cell Signaling Technology, 3700), anti-phospho ERK1/2 (Cell Signaling Technology, 4370), anti-PKCβ (phospho 5660) (Abcam, 75837), anti-phospho p38 (Cell Signaling Technology, 4511).
as §1, with “Animals receiving placebo (5% Tween in PBS) were also injected every 3 days by intraperitoneal injection.” left out

pERK1/2 = assay: Western blot of pERK1/2 in proximal descending aortas of treated vEDS mice; format: in vivo; details: aortas of Col3a1^G938D/+ mice, SB203580 treated vs placebo treated; p<0.01
Protocol: as §2
as §1, with “Animals receiving placebo (5% Tween in PBS) were also injected every 3 days by intraperitoneal injection.” left out

MFS mice = details: therapies that attenuate TGF-β signaling and related pathways; cited from earlier work

SMILES	aortic disease rupture risk [1]	elevated risk of rupture caused by the p38 inhibitor, under concomitant treatment (Kaplan-Meier survival) (BL6 Col3a1^G938D/+ mice)	other results
O=C(c1ccc(F)c(F)c1Nc1ccc(I)cc1F)N1CC(O)([C@@H]2CCCCN2)C1 [cobimetinib]	rescue aortic disease rupture risk	rescued	
C[S+]([O-])c1ccc(-c2nc(-c3ccncc3)c(-c3ccc(F)cc3)[nH]2)cc1 (centres unmarked) [SB203580]			PKC activation (pPKCβ levels normalized to β-actin) (pPKCβ): increase; ERK activation (pERK1/2 levels normalized to β-actin) (pERK1/2): increase; rate of death / vascular rupture risk (Kaplan-Meier survival vs placebo) (BL6 Col3a1^G938D/+ mice; BL6 Col3a1^G938D/+ mice, IP injection every 3 days starting at weaning, continuing for 40 days, Log-Rank p<0.01): significantly increased the rate of death; also recorded: increases vascular rupture risk
CCCCc1nc(Cl)c(CO)n1Cc1ccc(-c2ccccc2-c2nn[nH]n2)cc1 [losartan]			aortic disease (MFS mice): suppress aortic disease
CN(C)C[C@@H]1CCn2cc(c3ccccc32)C2=C(C(=O)NC2=O)c2cn(c3ccccc23)CCO1 [ruboxistaurin]	rescue aortic disease rupture risk	rescued	

Source: patent publication US20230310537A1, “TREATMENT OF VASCULAR EHLERS-DANLOS SYNDROME AND RELATED SYNDROMES” (The Johns Hopkins University, priority 2020, published 2023)
